Assay results published in patent publication US11064658B2, “Method for inducing plants to increase their flavonoid compound content” (Industrial Technology Research Institute, priority 2018, dated 2021).

Tests used:
Type in all cases: in vivo
[1] = test system: Chrysanthemum morifolium; experiment: Cu ion stimulation alone or combined with ultraviolet irradiation, hydroponic culture; flavonoid glycoside contents by HPLC; settings: whole plants, compared to control group
[2] = test system: Chrysanthemum morifolium; experiment: Zn ion stimulation for 40 days, solid medium culture; flavonoid glycoside contents by HPLC; settings: whole plants, Zn ion 15, 30, 45 mM, compared to control group (3 mM)
Procedure: 1. Different amounts of ZnSO4 were added to the formulation of Table 2 shown in the following to respectively form MS solid mediums with different Zn ion final concentration of 3 mM (control group), 15 mM, 30 mM and 45 mM for ready for use. 2. A terminal bud of a tissue culture seedling of Chrysanthemum morifolium (young shoot of Chrysanthemum morifolium) was cut and inserted to the solid medium prepared above (since a rooted plant was not easy to insert into solid medium, the experiment was performed in this way) to perform the solid medium culture. Since Zn is mainly absorbed by the roots of plants, the evaluation only could start after the plant had grown roots. The Zn element could be absorbed and utilized by the plant only after the plant had grown roots. Plants were allowed to absorb zinc during growth and development, thereby causing changes in physiological and compositional components in the plants. 3. After being cultured for 40 days, the morphological changes of the plants were observed and the samples of whole plants were collected. Then, the collected samples were lyophilized. 4. After the lyophilization, extraction was performed on the whole plant of Chrysanthemum morifolium. […]

[3] = test system: Chrysanthemum morifolium; experiment: Al ion stimulation for different lengths of time, hydroponic culture; flavonoid glycoside contents by HPLC; settings: whole plants, AlCl3 70, 250, 350 μM, 48, 72, 96 hours, compared to control group, had a dose effect
Procedure: (§1) 1. MS liquid medium was prepared based on the formulation of Table 1 shown in the following. 2. Different amounts of AlCl3 solution were added to the MS liquid medium prepared above to respectively form MS liquid mediums with AlCl3 final concentrations of 0 μM (control group), 70 μM, 250 μM and 350 μM for ready for use. 3. Tissue culture seedlings of Chrysanthemum morifolium (young shoot of Chrysanthemum morifolium) were taken out from solid culture tubes. After that, the solid medium on the root of the plants was washed with water, and the whole plants were inserted into test tubes containing the MS liquid medium with different AlCl3 final concentration prepared above, and the roots of the plants were immersed in the liquid medium. Finally, the above-ground parts of the plants were covered with sealed bags to protect the cuticula on the surfaces of the plant leaves to prevent rapid evapotranspiration of water. 4. After being immersed for 48, 72 and 96 hours, the morphological changes of the plants were observed and the samples of whole plants were collected. Then, the collected samples were lyophilized. 5. After the lyophilization, extraction was performed on the whole plant of Chrysanthemum morifolium. […]

[4] = test system: Ixeris chinensis; experiment: Al ion stimulation alone or combined with ultraviolet irradiation, hydroponic culture; total flavonoid content of flowers and pedicels; settings: for total flavonoid content: flowers and pedicels, compared to control group
Procedure: 1. MS liquid medium was prepared according to the formulation of Table 1 shown above. 2. Different amounts of AlCl3 solution were added to the MS liquid medium prepared above to respectively form MS liquid mediums with AlCl3 final concentrations of 0 mM (control group) and 1.25 mM for ready for use. 3. […] chinensis plants were sampled from the field. Leaves and pedicels of the above-ground part and root of the under-ground part of the […] chinensis plant were wiped and wash with water and the root were allowed in a form of bare root. After that, the whole plant was inserted into a test tube containing the MS liquid medium with AlCl3 prepared above, and the root of the plant was immersed in the liquid medium. 4. At the 73th hour of the immersion, the plants were irradiated with ultraviolet B for 1 hour. The plants were then allowed to recover for 3 hour. After the recovery, the morphological changes of the plants were observed and samples of flowers and pedicels were collected. Then, the collected samples were lyophilized. 5. The collected flowers and pedicels of the fresh plant were extracted with 30% ethanol and subjected to total flavonoid content analysis.

[5] = test system: Chrysanthemum morifolium; experiment: Al ion stimulation alone or combined with ultraviolet irradiation, solid medium culture; total flavonoid content; settings: whole plant, compared to control group
Procedure: 1. Different amounts of AlCl3 were added to the formulation of Table 2 shown above to respectively form MS solid mediums with final concentration of 0 μM (control group) and 350 μM for ready for use. 2. A terminal bud of a tissue culture seedling of Chrysanthemum morifolium (young shoot of Chrysanthemum morifolium) was cut and inserted to a solid medium without addition of the stimulation ion. After the plant had grown roots, the root part of the plant having the root with a length of less than 0.5 cm was inserted to the solid medium prepared above to perform the solid medium culture. 4. On the 41st day of the culture, the plants were irradiated with ultraviolet B for 0, 1, 2 and 4 hours, respectively. The plants were then allowed to recover for 3 hours. After the recovery, the morphological changes of the plants were observed and samples of whole plants (plants stimulated by Al ions alone, plants irradiated with 1 hour of ultraviolet alone, and plants stimulated by Al ions and 1, 2, and 4 hours of ultraviolet irradiation were obtained) were collected. After that, the collected samples were lyophilized. 5. After the lyophilization, extraction was performed on the whole plant. […] Quantitative analysis of total flavonoids was performed on the extracts mentioned above.

[6] = test system: Chrysanthemum morifolium; experiment: Al ion stimulation of flowering plants for 96 hours, soil culture; flavonoid contents of flowers; settings: AlCl3 1.25 mM and 2.5 mM, compared to control group
Procedure: 1. AlCl3 solutions with concentrations of 1.25 mM and 2.5 mM were prepared, respectively. 2. The flowering plants of Chrysanthemum morifolium (adult of Chrysanthemum morifolium) cultured by soil culture together with the soil and flower pots where the plants were located, were immersed in the AlCl3 solutions prepared above. 3. After being immersed for 96 hours, the morphological changes of the plants were observed and the samples of flowers were collected and lyophilized. 4. After the lyophilization, extraction was performed on the flowers of Chrysanthemum morifolium. The extraction method used was water extraction, and the dried flowers and deionized water were mixed at a ratio of 1:20 (g/mL) (i.e., 1 g dry weight of flowers was added to 20 mL of deionized water) to form a mixture. Using a condensing heating system, the mixture was heated to boiling for 90 minutes to complete the extraction and obtain an extract solution. The plant residue in the extract solution was removed by filtration, and then the extract solution was further lyophilized to obtain an extract.

[7] = test system: Chrysanthemum morifolium; experiment: Al ion stimulation at different concentrations for 72 hours, hydroponic culture; flavonoid glycoside contents by HPLC; settings: whole plants, AlCl3 100, 150, 200, 250 μM, compared to control group
Procedure: as §1, with “above.” for “in the following.”, “100” for “70”, “150 μM, 200” for “250”, “250” for “350”, “for” for “for 48,”, “72” for “72 and 96”

[8] = test system: Chrysanthemum morifolium; experiment: Al ion stimulation alone or combined with ultraviolet irradiation, hydroponic culture; flavonoid glycoside contents by HPLC; settings: whole plants, compared to control group
Procedure: 1. MS liquid medium was prepared based on the formulation of Table 1 shown above. 2. Different amounts of AlCl3 solution were added to the MS liquid medium prepared above to respectively form MS liquid mediums with AlCl3 final concentrations of 0 μM (control group) and 250 μM for ready for use. 3. Tissue culture seedlings of Chrysanthemum morifolium (young shoot of Chrysanthemum morifolium) were taken out from solid culture tubes. After that, the solid medium on the roots of the plants were washed with water, and the whole plants were inserted into test tubes containing the MS liquid medium with different AlCl3 final concentration prepared above, and the roots of the plant were immersed in the liquid medium. Finally, the above-ground parts of the plants were covered with sealed bags to protect the cuticula on the surfaces of the plant leaves to prevent rapid evapotranspiration of water. 4. […] The plants were then allowed to recover for 1 hour. After the recovery, the morphological changes of the plants were observed and samples of whole plants were collected. Then, the collected samples were lyophilized. 5. After the lyophilization, extraction was performed on the whole plant of Chrysanthemum morifolium. The extraction method used was water extraction, and the dried plant and deionized water were mixed at a ratio of 1:20 (g/mL) (i.e., 1 g dry weight of plant was added to 20 mL of deionized water) to form a mixture. Using a condensing heating system, the mixture was heated to boiling for 90 minutes to complete the extraction and obtain an extract solution. The plant residue in the extract solution was removed by filtration, and then the extract solution was further lyophilized to obtain an extract. 6. High-performance liquid chromatography was performed on the extract mentioned above to determine the contents of luteolin-7-O-β-D-glycoside and […] which belong to flavonoid compounds.

[9] = CuSO4 250 μM plus ultraviolet B 1 hour at 97th hour, recovery 1 hour
[10] = AlCl3 250 μM plus ultraviolet B 1 hour at 97th hour, recovery 1 hour

## O=S(=O)([O-])[O-].[Cu+2] [Cu ions, CuSO4]
[1]; [9]
  content of apigenin-7-O-β-D-glycoside: about 37 fold
  content of luteolin-7-O-β-D-glycoside: about 37 fold
[1]; CuSO4 250 μM, Cu ions alone
  content of apigenin-7-O-β-D-glycoside: increased
  content of luteolin-7-O-β-D-glycoside: increased

## O=S(=O)([O-])[O-].[Zn+2] [Zn ions, ZnSO4]
[2]
  content of apigenin-7-O-β-D-glycoside: significantly increased about sevenfold to eightfold
  content of luteolin-7-O-β-D-glycoside: significantly increased about sevenfold to eightfold

## [Cl][Al]([Cl])[Cl] [Al ions, AlCl3]
[3]
  content of apigenin-7-O-β-D-glycoside: significantly increased
  content of luteolin-7-O-β-D-glycoside: significantly increased
[4]; AlCl3 1.25 mM, ultraviolet B 1 hour
  appearance of plants before and after the ultraviolet irradiation, under Al ion stimulation: no significant difference
[4]; AlCl3 1.25 mM plus ultraviolet B 1 hour at 73th hour, recovery 3 hour
  total flavonoid content: about 3.5 fold
[4]; AlCl3 1.25 mM, Al ions alone
  total flavonoid content: increased
[5]; AlCl3 350 μM plus ultraviolet B 1, 2, 4 hours on 41st day, recovery 3 hours
  total flavonoid content: increased
[5]; AlCl3 350 μM, Al ions alone
  total flavonoid content: increased
[6]
  content of apigenin: significantly increased
  content of apigenin-7-O-β-D-glycoside: significantly increased
  content of luteolin-7-O-β-D-glycoside: significantly increased
[7]
  content of apigenin-7-O-β-D-glycoside: significantly increased about twofold to threefold
  content of luteolin-7-O-β-D-glycoside: significantly increased about twofold to threefold
[8]; [10]
  content of apigenin-7-O-β-D-glycoside: about 40 fold
  content of luteolin-7-O-β-D-glycoside: about 40 fold
[8]; AlCl3 250 μM, Al ions alone
  content of apigenin-7-O-β-D-glycoside: increased
  content of luteolin-7-O-β-D-glycoside: increased
